Assay results from PMC6271415, “Synthesis and Docking Studies of 2,4,6-Trihydroxy-3-Geranylacetophenone Analogs as Potential Lipoxygenase Inhibitor” (Molecules, 2014).
Like-named read-outs stand apart in the source and are kept apart here.

How the values were obtained:
[1] = test system: 5-LOX; settings: cited from earlier work
[2] = target: T1, soybean 15-LOX (Glycine max, UniProt P08170); assay: In vitro soybean 15-lipoxygenase inhibition assay (spectrophotometric, linoleic acid substrate); format: biochemical; settings: for inhibition at 100 µg/mL: read-out: % Inhibition (100 μg/mL)
T1 construct: purchased
T1 sequence (P08170 1-839): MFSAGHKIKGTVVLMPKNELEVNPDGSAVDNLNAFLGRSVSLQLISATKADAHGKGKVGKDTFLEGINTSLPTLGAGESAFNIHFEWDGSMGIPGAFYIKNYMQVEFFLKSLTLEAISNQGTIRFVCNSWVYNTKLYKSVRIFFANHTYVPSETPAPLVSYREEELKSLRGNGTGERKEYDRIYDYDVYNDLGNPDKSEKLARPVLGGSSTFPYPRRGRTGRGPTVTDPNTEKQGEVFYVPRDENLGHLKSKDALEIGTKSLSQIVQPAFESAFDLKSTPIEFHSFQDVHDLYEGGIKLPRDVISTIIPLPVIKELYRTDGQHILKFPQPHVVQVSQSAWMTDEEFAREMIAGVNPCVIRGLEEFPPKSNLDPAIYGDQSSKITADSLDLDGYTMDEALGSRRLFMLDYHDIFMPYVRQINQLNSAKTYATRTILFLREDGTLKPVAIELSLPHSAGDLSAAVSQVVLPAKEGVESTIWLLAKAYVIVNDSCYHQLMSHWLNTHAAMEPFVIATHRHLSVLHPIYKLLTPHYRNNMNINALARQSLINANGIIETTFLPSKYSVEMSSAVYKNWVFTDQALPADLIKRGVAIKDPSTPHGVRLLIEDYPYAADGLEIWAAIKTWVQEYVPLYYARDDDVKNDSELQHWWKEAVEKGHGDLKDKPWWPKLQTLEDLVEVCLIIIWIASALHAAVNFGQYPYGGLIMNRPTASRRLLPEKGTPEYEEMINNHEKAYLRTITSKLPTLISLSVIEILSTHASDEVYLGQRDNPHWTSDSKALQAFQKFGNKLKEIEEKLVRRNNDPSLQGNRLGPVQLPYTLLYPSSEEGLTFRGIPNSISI
Description: The target compounds (3a, 3c, 3e–g), intermediates (2a, 2c–g) and the starting material (1) were preliminary evaluated in vitro for their ability to inhibit soybean 15-LOX activity by using spectrophotometric method. Bioactivity screening for soybean 15-LOX inhibition by the target compounds was carried out at 100 μg/mL concentration. […] The bioactivities of the compounds were also compared to tHGA as the parent compound.
In vitro soybean 15-LOX inhibiting activity was measured using spectrophotometric method. In brief, sodium phosphate buffer (160 μL, 100 mM, pH 8.0), test sample (10 μL) and soybean 15-LOX (1.13.11.12) type I-B solution (20 μL, 320 U/well) were mixed and incubated for 15 min at 25 °C. The reaction was then initiated by the addition of the substrate in the form of linoleic acid (10 μL, 0.6 mM) solution. The enzymatic conversion of linoleic acid to form (9Z,11E)-(13S))-13-hydroperoxyoctadeca-9,11-dienoate end product was followed by the change of absorbance measured at 234 nm over a period for 6 min. Test samples and reference standards were dissolved in DMSO. Stock solutions were prepared at concentration 100 μg/mL for pure compounds. […] All reactions were performed in triplicate in a 96-well microtitre plate. The IC50 was calculated from the non-linear regression fitting curve of GraphPad Prism 5. The percentage of inhibition (%) can be calculated from the following formula [17]: [drawing 1] (1)

[3] = target: T1, soybean 15-LOX; parameters: method as in PMID 16644538; settings: initial finding; read-out: IC50 against soybean 15-LOX (earlier studies); cited from earlier work
[4] = test system: airway hyperresponsiveness to methacholine challenge; parameters: method as in PMID 21958738, PMID 22266348; settings: compared with Zileuton; cited from earlier work
[5] = test system: activated macrophage cells; parameters: method as in PMID 16644538; settings: cited from earlier work
[6] = isolated from Hypericum empetrifolium, read-out: IC50 against 5-LOX
[7] = soybean 15-LOX, read-out: IC50 Value (μM) Mean ± SEM
[8] = rounded values printed in Figure 1, read-out: 15-LOX IC50 (Figure 1)

Row | inhibition at 100 µg/mL ([2]; 100 μg/mL, mean ± SEM) | IC50 [2, 7] | Compound | also measured
1 |  |  | 3-geranyl-1-(2'-methylbutanoyl)phloroglucinol [compound 4] | IC50 [1, 6]: 5.8 µM
2 | 19.4 ± 5% | > 100 µM | CC(C)C(=O)c1c(O)cc(O)cc1O [2a, 2-Methyl-1-(2,4,6-trihydroxyphenyl)propan-1-one] | 
3 | 16.9 ± 1.9% | > 100 µM | CC(C)(C)C(=O)c1c(O)cc(O)cc1O [2d, 2,2-Dimethyl-1-(2,4,6-trihydroxyphenyl)propane-1-one] | 
4 |  |  | CCCCC(=O)c1c(O)cc(O)cc1O [2e, 1-(2,4,6-Trihydroxyphenyl)pentan-1-one] | IC50 [2]: > 100 µM; inhibition at 100 µg/mL [2]: 24.5 ± 3.2%
5 | 17.5 ± 3% | > 100 µM | O=C(c1c(O)cc(O)cc1O)C1CCCCC1 [2f, Cyclohexyl(2,4,6-trihydroxyphenyl)methanone] | 
6 |  | > 100 µM | O=C(/C=C/c1ccccc1)c1c(O)cc(O)cc1O [2g, (E)-3-Phenyl-1-(2,4,6-trihydroxyphenyl)prop-2-en-1-one] | % Inhibition (100 μg/mL) ([2]; 100 μg/mL, mean ± SEM): did not exhibit any anti-inflammatory activity
7 | 90.3 ± 4.1% | 27.6 ± 3.6 µM | CC(C)=CCC/C(C)=C/Cc1c(O)cc(O)c(C(=O)C(C)C)c1O [3a, 3-Geranyl-1-(2'-methylpropanoyl)phloroglucinol] | IC50 [2, 8]: 27 µM; IC50 [1, 6]: 2.2 µM
8 | 94.4 ± 3% | 12.3 ± 0.6 µM | CCC(=O)c1c(O)cc(O)c(C/C=C(\C)CCC=C(C)C)c1O [3c, (E)-1-(3-(3,7-Dimethylocta-2,6-dienyl)-2,4,6-trihydroxyphenyl)propan-1-one] | 
9 | 90.3 ± 4.4% | 10.3 ± 1.5 µM | CCCCC(=O)c1c(O)cc(O)c(C/C=C(\C)CCC=C(C)C)c1O [3e, (E)-1-(3-(3,7-Dimethylocta-2,6-dienyl)-2,4,6-trihydroxyphenyl)pentan-1-one] | 
10 | 88.8 ± 5.9% | 26.3 ± 1.3 µM | CC(C)=CCC/C(C)=C/Cc1c(O)cc(O)c(C(=O)C2CCCCC2)c1O [3f, (E)-Cyclohexyl (3-(3,7-dimethylocta-2,6-dienyl)-2,4,6-trihydroxyphenyl)-methanone] | 
11 | 90.8 ± 7.6% | 15.2 ± 1.2 µM | CC(C)=CCC/C(C)=C/Cc1c(O)cc(O)c(C(=O)/C=C/c2ccccc2)c1O [3g, (E)-1-(3-((E)-3,7-Dimethylocta-2,6-dienyl)-2,4,6-trihydroxyphenyl)-3-phenylprop-2-en-1-one] | 
12 | 23.2 ± 2.2% | > 100 µM | Oc1cc(O)cc(O)c1 [compound 1, phloroglucinol] | 
13 | 94.3 ± 3.4% | 23.6 ± 1.7 µM | CC(=O)c1c(O)cc(O)c(C/C=C(\C)CCC=C(C)C)c1O [tHGA, 2,4,6-trihydroxy-3-geranylacetophenone] | IC50 [2, 8]: 23 µM; IC50 [3]: 20 µM; IC50 ([1]; Figure 1, read-out: 5-LOX IC50): 0.42 µM; efficacy in acute murine asthma model (airway hyperresponsiveness, cellular infiltration, cytokines, cysLT, IgE) [4]: as effective as Zileuton; inhibition of cysteinyl leukotriene secretion [5]: dose-dependent inhibition

Row | Compound | inhibition at 100 µg/mL ([2]; 100 μg/mL, mean ± SEM) | IC50 [2, 7] | also measured
14 | CCC(=O)c1c(O)cc(O)cc1O [2c, 1-(2,4,6-Trihydroxyphenyl)propan-1-one] |  | > 100 µM | % Inhibition (100 μg/mL) ([2]; 100 μg/mL, mean ± SEM): did not exhibit any anti-inflammatory activity
